Laboratory results reported in EP2687509A2, “Dicarboxyimides derivatives for use in the treatment of cancer” (Warszawski Uniwersytet Medyczny, priority 2012, dated 2014).
Read-outs that look alike come from different tables or passages of the source.

Experiments:
caspase-6 = details: MOLT-4 cells; 5µM; after 24 hours of incubation; cited from earlier work
[1] = tested on: peripheral blood lymphocytes; details: normal cells (peripheral blood lymphocytes); cited from earlier work
[2] = tested on: tumor cell lines (leukemia, breast cancer, neuroblastoma, colorectal cancer, liver, prostate, lung); details: 13 tested tumor cell lines; cited from earlier work
caspase-3 = details: MOLT-4 cells; 5µM; after 12 hours of incubation; cited from earlier work
[3] = mouse, in vivo; cited from earlier work
[4] = higher than for the lead compound amonafide; cited from earlier work
[5] = tested on: murine leukemia, breast cancer and orthotopic models of non-small cell lung cancer and pancreatic cancer; details: cited from earlier work
HL60 cells = experiment: MTT cytotoxicity assay, HL60 cells; assay type: cell-based; details: Homo sapiens, HL-60, 48 h, 48 h incubation
Protocol: (§1) A series of dicarboximides derivatives (table 1) was tested for cytotoxic properties against four cell lines. The tests were conducted by means of MTT assay where yellow tetrazole salt was processed by the dehydrogenases in mitochondria of live cells into violet formazan. The following cell lines were used:
- HL60 cells (human acute myelogenous leukaemia)
(§2) 1. HeLa, K562, HL60, HUVEC cells in an amount of 7 thousand cells / well (in 200 µL medium) were seeded in 96-well plates. Cells were incubated overnight in an incubator (37°C, 5% CO2)
(§3) 2. Test compounds were dissolved in DMSO and added in an amount of 2µL to the surface of the cells to give the following final concentrations in the cell culture (1 mM, 10 µm, 100 nM, 1 nM). As a control, cells exposed to 1% DMSO were used.
(§4) 3. Cytotoxicity of the test compounds was evaluated by MTT test. After 48-hour incubation of HeLa, K562, HL60 or HUVEC cells with the test compounds, MTT (5mg/mL) was added in an amount of 25µL/well. MTT, a yellow tetrazolium salt was reduced to purple formazan by mitochondrial dehydrogenases of living cells. The amount of formazan could be determined spectrophotometrically and was proportional to the number of live cells. Cells were incubated with MTT for 2 hours in an incubator (37°C, 5% CO2). Next, lysis buffer containing SDS and DMF was added (95µL/well) to each well and incubated overnight at 37°C, 5% CO2.
(§5) 4. The plates were analyzed by reading the absorbance at a wavelength of 570 nm and 650 nm using the plate-reader Fluostar Omega. The measured absorbance at 570 nm is proportional to the number of living cells. IC50 values (concentration of compound causing 50% cell mortality) were read from the charts by interpolation to 50% cell survival.

HeLa cells = experiment: MTT cytotoxicity assay, HeLa cells; assay type: cell-based; details: Homo sapiens, 48 h incubation, * = compound precipitated at 1 mM from cell cultures
Protocol: as §1
- HeLa cells (uterine cervix cancer)
as §2, §3, §4, §5

K562 cells [6] = experiment: MTT cytotoxicity assay, K562 cells; assay type: cell-based, human; details: 48 h incubation, * = compound precipitated at 1 mM from cell cultures
Protocol: as §1
- K562 cells (human chronic myelogenous leukaemia) and
as §2, §3, §4, §5

HUVEC cells = experiment: MTT cytotoxicity assay, HUVEC cells; assay type: cell-based; details: Homo sapiens, 48 h incubation, * = compound precipitated at 1 mM from cell cultures
Protocol: as §1
- HUVEC cells (normal human endothelial cells).
as §2, §3, §4, §5

caspase 3 and 7 = experiment: Apo-ONE Homogeneous Caspase-3/7 Assay in K562 cells; assay type: cell-based, human; details: for activity of caspase 3 and 7: 5 x IC50 (a5: 10 µM), 18 hours, compared with K562 and K562+DMSO, Fig. 1
Protocol: The observed cytotoxicity of compounds a3-7 was tested for its origin, i.e. induction of necrosis or apoptosis in the K562 cells of chronic myelogenous leukaemia.
K562 cells in RPMI 1640 medium containing 10% fetal calf serum and antibiotics were seeded on 96-well plate in an amount of 20x10^3 cells / well. Cells were cultured for 24 hours in an incubator (5% CO2, 37°C).
Compounds a3-a7 were dissolved in DMSO and added to the cell medium; final concentration in the cell culture was 5 x IC50. Cells cultured in the presence of 1% DMSO served as a negative control. Cells grown in the presence of 1 µM staurosporin (a strong inducer of apoptosis) served as a positive control. […]
The activity of caspase 3 and 7 was determined by means of Apo-ONE® Homogeneous Caspase-3/7 Assay (Promega, Madison, WI, USA), in compliance with manufacturer's guidelines. Cells were lysed and incubated with a profluorescent substrate for caspases for 1.5 hours at room temperature. Due to proteolytic activity of caspases, the profluorescent substrate was converted into a fluorescent product the amount of which could be determined by measurement of fluorescence intensity.
The fluorescence intensity in each well was measured using a plate reader Fluostar Omega (BMG-Labtech, Germany) at an excitation wavelength of 485 nm and emission 520 nm. The intensity of fluorescence is proportional to the activity of caspase 3 and 7 in the sample.

K562 cells [7] = details: against K562 cells; for comparison; cited from earlier work
[8] = * = compound precipitated at 1 mM from cell cultures

Row | Structure (SMILES) | IC50 (HL60 cells) | IC50 (HL60 cells; [8]) | IC50 (HeLa cells) | IC50 (K562 cells [6]) | IC50 (HUVEC cells) | activity of caspase 3 and 7 (caspase 3 and 7) | IC50 (K562 cells [6]; Homo sapiens, K562, 48 h) | also measured
1 | O=C1c2cccc3c([N+](=O)[O-])ccc(c23)C(=O)N1CCCO [6-nitro-2-(3-hydroxypropyl)-1H-benz[de]izoquinolino-1,3-dione] |  |  |  |  |  |  |  | caspase-6 activity (caspase-6): significant increase; IC50 [1]: 273 µM; tested tumor cell lines to which the compound was toxic [2]: 8 of 13; caspase-3 activity (caspase-3): significant increase
2 | CN(C)CCN1C(=O)c2cccc3cc(NC(=O)NC(=O)C(Cl)(Cl)Cl)cc(c23)C1=O [UNBS3157, 2,2,2-trichloro-N-({2-[2-(dimethylamino)ethyl]-1,3-dioxo-2,3-dihydro-1H-benzo[de]izoquinolino-5-ylo}carbamoylo)acetamide] |  |  |  |  |  |  |  | haemotoxicity [3]: no haemotoxicity; maximum tolerated dose relative to amonafide [4]: about 4 x; activity in in vivo models compared to amonafide [5]: enhanced activity
3 | CCC12C(=O)C(CC)(C(c3ccccc3)=C1c1ccccc1)C1C(=O)N(CCN(C)C)C(=O)C12 (stereo not shown) [a3] | 1 to 10 µM | > 1000 µM | > 1000 µM | 10 µM | > 1000 µM | do not increase |  | 
4 | CCN(CC)CCN1C(=O)C2C(C1=O)C1(CC)C(=O)C2(CC)C(c2ccccc2)=C1c1ccccc1 (stereo not shown) [a4] | 1 to 10 µM | > 1000 µM | > 1000 µM | 4.5 µM | > 1000 µM | do not increase |  | 
5 | CCC12C(=O)C(CC)(C(c3ccccc3)=C1c1ccccc1)C1C(=O)N(CCN3CCCCC3)C(=O)C12 (stereo not shown) [a5] | 1 to 10 µM | > 1000 µM | > 1000 µM | 2 µM | > 1000 µM | increased | 1 to 10 µM | activity of caspases 3 and 7 (caspase 3 and 7; a5 concentration = 10 µM, incubation time = 24h): increased
6 | CCC12C(=O)C(CC)(C(c3ccccc3)=C1c1ccccc1)C1C(=O)N(CCCN(C)C)C(=O)C12 (stereo not shown) [a6] | 1 to 10 µM | > 1000 µM | > 1000 µM | 8 µM | > 1000 µM | do not increase |  | 
7 | CC(C)NCC(O)CN1C(=O)C2C(C1=O)C1(c3ccccc3)C(=O)C2(c2ccccc2)C(c2ccccc2)=C1c1ccccc1 (stereo not shown) [a13] |  |  | 1 µM |  | 2 µM |  | 0.9 µM | 
8 | CN(C)CC(O)CN1C(=O)C2C(C1=O)C1(c3ccccc3)C(=O)C2(c2ccccc2)C(c2ccccc2)=C1c1ccccc1 (stereo not shown) [a14] |  |  | 1 µM |  | 2 µM |  | 0.9 µM | 
9 | CC1=CC2(C)CC(C)(C)C1C1C(=O)N(CCN(C)C)C(=O)C12 (stereo not shown) [b11] |  |  | 90 µM |  | 300 µM |  | 100 µM | 
10 | CC1=CC2(C)CC(C)(C)C1C1C(=O)N(CCN3CCOCC3)C(=O)C12 (stereo not shown) [b13] |  |  | 90 µM |  | 100 µM |  | 90 µM | 
11 | CC1=CC2(C)CC(C)(C)C1C1C(=O)N(CCCN(C)C)C(=O)C12 (stereo not shown) [b15] |  |  | 100 µM |  | 700 µM |  | 90 µM | 
12 | CCOC(=O)C1CC2C(=O)CC1(C)C1C(=O)N(CCN(C)C)C(=O)C21 (stereo not shown) [c6] |  |  | 100 µM |  | > 1000 µM |  | > 1000 µM | 
13 | N.N.[Cl][Pt][Cl] [cis-platinum] |  |  |  |  |  |  |  | IC50 (K562 cells [7]): several to several dozens
